From ChEMBL document CHEMBL4393657, “Tetrazole hybrids and their antifungal activities” (2019)
In brackets after ≈: the same amount, converted by molar mass.

Experiments:
Assay type in all cases: functional
Candida albicans [1] = experiment: Antifungal activity against Candida albicans TA
Candida albicans [2] = experiment: In vivo antifungal activity against Candida albicans TA infected in CDF-1 mouse dosed orally assessed as survival of mouse; settings: po
Candida albicans [3] = experiment: Antifungal activity against Candida albicans NCCS 3471 assessed as inhibition zone at 50 ug/ml incubated for 3 to 4 days by disk diffusion method; settings: read-out: IZ
Aspergillus fumigatus = experiment: Antifungal activity against Aspergillus fumigatus NCIM 902 assessed as inhibition zone at 50 ug/ml incubated for 3 to 4 days by disk diffusion method; settings: read-out: IZ
Candida albicans [4] = experiment: Antifungal activity against Candida albicans assessed as reduction in fungal cell growth incubated for 48 hrs by broth microdilution susceptibility method
Aspergillus niger [5] = experiment: Antifungal activity against Aspergillus niger assessed as reduction in fungal cell growth incubated for 48 hrs by broth microdilution susceptibility method
Candida albicans [6] = experiment: Antifungal activity against Candida albicans assessed as inhibition zone at 250 ug/ml; settings: read-out: IZ
Aspergillus niger [7] = experiment: Antifungal activity against Aspergillus niger assessed as inhibition zone at 250 ug/ml; settings: read-out: IZ
Candida albicans [8] = experiment: Antifungal activity against Candida albicans assessed as reduction in fungal cell growth incubated for 24 and 72 hrs by cup plate method
Aspergillus flavus = experiment: Antifungal activity against Aspergillus flavus assessed as reduction in fungal cell growth incubated for 24 and 72 hrs by cup plate method
Fusarium oxysporum = experiment: Antifungal activity against Fusarium oxysporum assessed as reduction in fungal cell growth incubated for 24 and 72 hrs by cup plate method
Candida albicans [9] = experiment: Antifungal activity against Candida albicans assessed as inhibition zone at 125 ug/ml by disk diffusion method; settings: read-out: IZ

C[C@@H](n1cnnn1)[C@](O)(Cn1cncn1)c1ccccc1F
MIC (Candida albicans [1]): 12.5 to 100 µg/mL (≈ 41.2 to 330 µM) | ED50 (Candida albicans [2]): 0.18 to 1.54 mg/kg

c1ccc(-n2nnnc2-c2cccnc2)cc1
zone of inhibition at 50 µg/mL (Candida albicans [3]): 10 to 19 mm | zone of inhibition at 50 µg/mL (Aspergillus fumigatus): 10 to 19 mm

COc1ccc(-c2nn[se]c2-n2nnc(-c3ccc(Cl)cc3)n2)cc1
MIC (Candida albicans [4]): 100 to 400 µg/mL (≈ 239 to 958 µM) | MIC (Aspergillus niger [5]): 100 to 400 µg/mL (≈ 239 to 958 µM)

Cc1ccc(-c2nnnn2-c2nc3ccccc3s2)cc1
zone of inhibition at 250 µg/mL (Candida albicans [6]): 13 to 23 mm | zone of inhibition at 250 µg/mL (Aspergillus niger [7]): 13 to 23 mm

COc1ccc(-n2nnnc2-c2cccnc2)cc1
zone of inhibition at 50 µg/mL (Candida albicans [3]): 10 to 19 mm | zone of inhibition at 50 µg/mL (Aspergillus fumigatus): 10 to 19 mm

Cc1ccc(-n2nnnc2-c2cccnc2)cc1
zone of inhibition at 50 µg/mL (Candida albicans [3]): 10 to 19 mm | zone of inhibition at 50 µg/mL (Aspergillus fumigatus): 10 to 19 mm

C[C@@H](n1ncnn1)[C@](O)(Cn1cncn1)c1ccc(Cl)cc1
MIC (Candida albicans [1]): 100 µg/mL (≈ 313 µM)

Cc1ccc(-c2nnn(-c3[se]nnc3-c3ccc(Cl)cc3)n2)cc1
MIC (Candida albicans [4]): 100 to 400 µg/mL (≈ 249 to 996 µM) | MIC (Aspergillus niger [5]): 100 to 400 µg/mL (≈ 249 to 996 µM)

Clc1ccc(-c2nn[se]c2-n2nnc(-c3ccccc3Cl)n2)cc1
MIC (Candida albicans [4]): 6.25 µg/mL (≈ 14.8 µM) | MIC (Aspergillus niger [5]): 6.25 µg/mL (≈ 14.8 µM)

Oc1ccc(-c2nnnn2-c2nc3ccccc3s2)cc1O
zone of inhibition at 250 µg/mL (Candida albicans [6]): 13 to 23 mm | zone of inhibition at 250 µg/mL (Aspergillus niger [7]): 13 to 23 mm

CN(C)c1ccc(-c2nnnn2-c2nc3ccccc3s2)cc1
zone of inhibition at 250 µg/mL (Candida albicans [6]): 13 to 23 mm | zone of inhibition at 250 µg/mL (Aspergillus niger [7]): 13 to 23 mm

O=C1CC(=O)N(c2ccccc2)C(=S)N1/N=C/c1cc2ccccc2n2nnnc12
MIC (Candida albicans [4]): ≥ 100 µg/mL

Clc1ccc(-c2nn[se]c2-n2nnc(-c3ccccc3)n2)cc1
MIC (Candida albicans [4]): 100 to 400 µg/mL (≈ 258 to 1030 µM) | MIC (Aspergillus niger [5]): 100 to 400 µg/mL (≈ 258 to 1030 µM)

C[C@@H](n1cnnn1)[C@](O)(Cn1cncn1)c1ccc(F)cc1
MIC (Candida albicans [1]): 12.5 to 100 µg/mL (≈ 41.2 to 330 µM) | ED50 (Candida albicans [2]): 0.18 to 1.54 mg/kg

Oc1ccc(-c2nnnn2-c2nc3ccccc3s2)cc1
zone of inhibition at 250 µg/mL (Candida albicans [6]): 13 to 23 mm | zone of inhibition at 250 µg/mL (Aspergillus niger [7]): 13 to 23 mm

O=[N+]([O-])c1ccc(-n2nnnc2-c2cccnc2)cc1
zone of inhibition at 50 µg/mL (Candida albicans [3]): 10 to 19 mm | zone of inhibition at 50 µg/mL (Aspergillus fumigatus): 10 to 19 mm

Oc1cccc(-c2nnnn2-c2nc3ccccc3s2)c1
zone of inhibition at 250 µg/mL (Candida albicans [6]): 13 to 23 mm | zone of inhibition at 250 µg/mL (Aspergillus niger [7]): 13 to 23 mm

Clc1ccccc1C(c1ccccc1)(c1ccccc1)n1ccnc1 [CLOTRIMAZOLE]
MIC (Candida albicans [4]): 12.5 µg/mL (≈ 36.2 µM)

O=C1CC(=O)N(c2ccc(Cl)cc2)C(=S)N1/N=C/c1cc2ccccc2n2nnnc12
MIC (Candida albicans [4]): ≥ 100 µg/mL

S=C1N=C(c2ccc(Br)cc2)CC(c2cc3ccccc3n3nnnc23)N1 (stereo not drawn)
MIC (Candida albicans [4]): ≥ 100 µg/mL

O=C1/C(=C/c2ccccc2)C(=O)N(c2ccccc2)C(=S)N1/N=C/c1cc2ccccc2n2nnnc12
MIC (Candida albicans [4]): ≥ 100 µg/mL

COc1ccc(-c2nn[se]c2-n2nnc(-c3ccc(C)cc3)n2)cc1
MIC (Candida albicans [4]): 100 to 400 µg/mL (≈ 252 to 1010 µM) | MIC (Aspergillus niger [5]): 100 to 400 µg/mL (≈ 252 to 1010 µM)

Clc1cccc(-n2nnnc2-c2cccnc2)c1Cl
zone of inhibition at 50 µg/mL (Candida albicans [3]): 16 mm | zone of inhibition at 50 µg/mL (Aspergillus fumigatus): 18 mm

C[C@@H](n1nnn(-c2ccc(OCC(F)(F)C(F)(F)F)cc2)c1=O)[C@](O)(Cn1cncn1)c1ccccc1
ED50 (Candida albicans [2]): 0.71 to 2 mg/kg

C[C@@H](n1nnn(-c2ccc(OC(F)(F)C(F)F)cc2)c1=O)[C@](O)(Cn1cncn1)c1ccccc1
ED50 (Candida albicans [2]): 0.71 to 2 mg/kg

O=[N+]([O-])c1ccccc1-n1nnnc1-c1cccnc1
zone of inhibition at 50 µg/mL (Candida albicans [3]): 10 to 19 mm | zone of inhibition at 50 µg/mL (Aspergillus fumigatus): 10 to 19 mm

COc1cc(-c2nnnn2-c2nc3ccccc3s2)cc(OC)c1OC
zone of inhibition at 250 µg/mL (Candida albicans [6]): 13 to 23 mm | zone of inhibition at 250 µg/mL (Aspergillus niger [7]): 13 to 23 mm

S=C1N=C(c2ccc(Cl)cc2)CC(c2cc3ccccc3n3nnnc23)N1 (stereo not drawn)
MIC (Candida albicans [4]): ≥ 100 µg/mL

CCOC(=O)C(C#N)C(c1cc2cc(C)ccc2n2nnnc12)P(=O)(OCC)OCC (stereo not drawn)
MIC (Candida albicans [8]): 10 to 25 µg/mL (≈ 22.5 to 56.1 µM) | MIC (Aspergillus flavus): 10 to 25 µg/mL (≈ 22.5 to 56.1 µM) | MIC (Fusarium oxysporum): 10 to 25 µg/mL (≈ 22.5 to 56.1 µM)

Clc1ccc(-n2nnnc2-c2cccnc2)cc1
zone of inhibition at 50 µg/mL (Candida albicans [3]): 10 to 19 mm | zone of inhibition at 50 µg/mL (Aspergillus fumigatus): 10 to 19 mm

COc1ccc(/N=C/c2cc3cc(-c4nc5ccccc5[nH]4)ccc3n3nnnc23)cc1
zone of inhibition at 125 µg/mL (Candida albicans [9]): 7 to 12 mm

COc1ccc2cc(C3CC(c4cc(Br)ccc4O)=NN3)c3nnnn3c2c1 (stereo not drawn)
MIC (Candida albicans [8]): 25 to 100 µg/mL (≈ 56.9 to 228 µM) | MIC (Aspergillus flavus): 25 to 100 µg/mL (≈ 56.9 to 228 µM) | MIC (Fusarium oxysporum): 25 to 100 µg/mL (≈ 56.9 to 228 µM)

CN(C)c1ccc(/C=C2/C(=O)N(/N=C/c3cc4ccccc4n4nnnc34)C(=S)N(c3ccc(Cl)cc3)C2=O)cc1
MIC (Candida albicans [4]): ≥ 100 µg/mL

Oc1ccc(Br)cc1C1=NNC(c2cc3ccccc3n3nnnc23)C1 (stereo not drawn)
MIC (Candida albicans [8]): 25 to 100 µg/mL (≈ 61.1 to 244 µM) | MIC (Aspergillus flavus): 25 to 100 µg/mL (≈ 61.1 to 244 µM) | MIC (Fusarium oxysporum): 25 to 100 µg/mL (≈ 61.1 to 244 µM)

Cc1ccc(N2C(=O)CC(=O)N(/N=C/c3cc4ccccc4n4nnnc34)C2=S)cc1
MIC (Candida albicans [4]): ≥ 100 µg/mL

COc1ccc2cc(C3CC(c4cc(Br)ccc4O)=NO3)c3nnnn3c2c1 (stereo not drawn)
MIC (Candida albicans [8]): 25 µg/mL (≈ 56.8 µM) | MIC (Aspergillus flavus): 25 µg/mL (≈ 56.8 µM) | MIC (Fusarium oxysporum): 25 to 100 µg/mL (≈ 56.8 to 227 µM)

COc1ccc2c(c1)cc(C1CC(c3cc(Br)ccc3O)=NN1)c1nnnn12 (stereo not drawn)
MIC (Candida albicans [8]): 25 to 100 µg/mL (≈ 56.9 to 228 µM) | MIC (Aspergillus flavus): 25 to 100 µg/mL (≈ 56.9 to 228 µM) | MIC (Fusarium oxysporum): 25 to 100 µg/mL (≈ 56.9 to 228 µM)

C[C@@H](n1ncnn1)[C@](O)(Cn1cncn1)c1ccc(F)cc1
MIC (Candida albicans [1]): 100 µg/mL (≈ 330 µM)
